Results from patent US12139492B2 (Endotarget Inc., priority 2021, dated 2024).
pIC50: −log10 of the molar value.

How the values were obtained:
JeKo-1 cells = test: Antiproliferative effect, MTS cell viability assay, JeKo-1 cells; format: cell-based; settings: Homo sapiens; JeKo-1 mantle cell lymphoma cells; read-out: IC50 (anti-proliferation) JeKO-1 cells
Method in brief: (§1)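 Cells were exposed to compound at 0, 0.001, 0.01, 0.1, 1 and 10 μM for 72 h. Viability was then measured by MTS assay, reading formazan produced by metabolically active cells as absorbance at 490 nm.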

Mino cells = test: Antiproliferative effect, MTS cell viability assay, Mino cells; format: cell-based; settings: Homo sapiens, MINO, Mino mantle cell lymphoma cells; read-out: IC50 (anti-proliferation) Mino cells
Method in brief: as §1

BTK = BTK (Homo sapiens, UniProt Q06187); test: Degradation of BTK protein in Namalwa cells (Western blot; DC50, Dmax); settings: for DC50: read-out: DC50 (BTK degradation), concentration giving 50% reduction of BTK expression level, cell line not given; for Dmax: read-out: Dmax (BTK degradation)
BTK, sequence (Q06187 whole entry): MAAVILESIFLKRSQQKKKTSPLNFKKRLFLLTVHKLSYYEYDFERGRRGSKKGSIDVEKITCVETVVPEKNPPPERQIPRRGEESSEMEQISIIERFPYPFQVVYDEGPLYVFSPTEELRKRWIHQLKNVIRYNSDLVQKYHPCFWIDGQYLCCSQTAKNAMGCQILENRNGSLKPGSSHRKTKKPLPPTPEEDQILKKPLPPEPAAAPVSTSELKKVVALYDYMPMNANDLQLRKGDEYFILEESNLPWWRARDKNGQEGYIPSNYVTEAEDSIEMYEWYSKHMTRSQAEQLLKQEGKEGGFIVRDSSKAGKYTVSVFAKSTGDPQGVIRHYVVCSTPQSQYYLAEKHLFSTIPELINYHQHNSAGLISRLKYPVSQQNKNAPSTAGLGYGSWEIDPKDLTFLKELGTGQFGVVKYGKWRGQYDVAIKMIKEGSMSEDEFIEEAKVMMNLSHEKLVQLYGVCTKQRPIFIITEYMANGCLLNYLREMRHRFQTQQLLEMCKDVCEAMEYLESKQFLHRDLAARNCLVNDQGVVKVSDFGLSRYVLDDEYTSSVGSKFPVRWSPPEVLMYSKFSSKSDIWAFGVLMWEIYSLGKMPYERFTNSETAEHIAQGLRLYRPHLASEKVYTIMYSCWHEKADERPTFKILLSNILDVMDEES

| DC50 (BTK) | Dmax (BTK) | SMILES | pIC50 (JeKo-1 cells) | pIC50 (Mino cells) |
| --- | --- | --- | --- | --- |
| < 0.01 µM | > 90% | Nc1ncnc2c1c(-c1ccc(Oc3ccccc3)cc1)nn2C1CCN(CC2CCN(CC3CCN(c4ccc(NC5CCC(=O)NC5=O)cc4)CC3)CC2)CC1 (centres unmarked) [Compound 557, 3-((4-(4-((4-((4-(4-amino-3-(4-phenoxyphenyl)-1H-pyrazolo[3,4-d]pyrimidin-1-yl)piperidin-1-yl)methyl)piperidin-1-yl)methyl)piperidin-1-yl)phenyl)amino)piperidine-2,6-dione] | > 6.00 | > 6.00 |
| < 0.01 µM | > 90% | Nc1ncnc2c1c(-c1ccc(Oc3ccccc3)cc1)nn2C1CCN(CCN2CCC(CC3CCN(c4ccc(NC5CCC(=O)NC5=O)cc4)CC3)CC2)CC1 (centres unmarked) [Compound 559, 3-((4-(4-((1-(2-(4-(4-amino-3-(4-phenoxyphenyl)-1H-pyrazolo[3,4-d]pyrimidin-1-yl)piperidin-1-yl)ethyl)piperidin-4-yl)methyl)piperidin-1-yl)phenyl)amino)piperidine-2,6-dione] | > 6.00 | > 6.00 |
| 0.01 to 0.05 µM | > 90% | Nc1ncnc2c1c(-c1ccc(Oc3ccccc3)cc1)nn2C1CCN(CCCN2CCC(CC3CCN(c4ccc(NC5CCC(=O)NC5=O)cc4)CC3)CC2)CC1 (centres unmarked) [Compound 561, 3-((4-(4-((1-(3-(4-(4-amino-3-(4-phenoxyphenyl)-1H-pyrazolo[3,4-d]pyrimidin-1-yl)piperidin-1-yl)propyl)piperidin-4-yl)methyl)piperidin-1-yl)phenyl)amino)piperidine-2,6-dione] | > 6.00 | > 6.00 |
| 0.01 to 0.05 µM | > 90% | Nc1ncnc2c1c(-c1ccc(Oc3ccccc3)cc1)nn2C1CCN(CC2CCN(CC3CCN(c4ccc(NC5CCC(=O)NC5=O)cc4)CC3)C2)CC1 (centres unmarked) [Compound 562, 3-((4-(4-((3-((4-(4-amino-3-(4-phenoxyphenyl)-1H-pyrazolo[3,4-d]pyrimidin-1-yl)piperidin-1-yl)methyl)pyrrolidin-1-yl)methyl)piperidin-1-yl)phenyl)amino)piperidine-2,6-dione] | 5.00 to 6.00 | 5.00 to 6.00 |
| 0.01 to 0.05 µM | > 90% | Nc1ncnc2c1c(-c1ccc(Oc3ccccc3)cc1)nn2C1CCN(CCN2CCC(CN3CCN(c4ccc(NC5CCC(=O)NC5=O)cc4)CC3)C2)CC1 (centres unmarked) [Compound 563, 3-((4-(4-((1-(2-(4-(4-amino-3-(4-phenoxyphenyl)-1H-pyrazolo[3,4-d]pyrimidin-1-yl)piperidin-1-yl)ethyl)pyrrolidin-3-yl)methyl)piperazin-1-yl)phenyl)amino)piperidine-2,6-dione] | 5.00 to 6.00 | 5.00 to 6.00 |
| 0.01 to 0.05 µM | > 90% | Nc1ncnc2c1c(-c1ccc(Oc3ccccc3)cc1)nn2C1CCN(CCN2CCC(CC3CCN(c4ccc(NC5CCC(=O)NC5=O)cc4)CC3)C2)CC1 (centres unmarked) [Compound 564, 3-((4-(4-((1-(2-(4-(4-amino-3-(4-phenoxyphenyl)-1H-pyrazolo[3,4-d]pyrimidin-1-yl)piperidin-1-yl)ethyl)pyrrolidin-3-yl)methyl)piperidin-1-yl)phenyl)amino)piperidine-2,6-dione] | > 6.00 | > 6.00 |
| 0.01 to 0.05 µM | > 75% | Nc1ncnc2c1c(-c1ccc(Oc3ccccc3)cc1)nn2C1CCN(CCCN2CCC(CN3CCN(c4ccc(NC5CCC(=O)NC5=O)cc4)CC3)C2)CC1 (centres unmarked) [Compound 565, 3-((4-(4-((1-(3-(4-(4-amino-3-(4-phenoxyphenyl)-1H-pyrazolo[3,4-d]pyrimidin-1-yl)piperidin-1-yl)propyl)pyrrolidin-3-yl)methyl)piperazin-1-yl)phenyl)amino)piperidine-2,6-dione] | > 6.00 | > 6.00 |
| > 0.05 µM | > 75% | Nc1ncnc2c1c(-c1ccc(Oc3ccccc3)cc1)nn2C1CCN(C2CCN(CC3CCN(c4ccc(N5CCC(=O)NC5=O)cc4)CC3)CC2)CC1 [Compound 568, 1-(4-(4-((4-(4-amino-3-(4-phenoxyphenyl)-1H-pyrazolo[3,4-d]pyrimidin-1-yl)-[1,4′-bipiperidin]-1′-yl)methyl)piperidin-1-yl)phenyl)dihydropyrimidine-2,4(1H,3H)-dione] | 5.00 to 6.00 | 5.00 to 6.00 |

Further lines, the compound ahead of its results:

| SMILES | DC50 (BTK) | Dmax (BTK) | pIC50 (JeKo-1 cells) | pIC50 (Mino cells) |
| --- | --- | --- | --- | --- |
| Nc1ncnc2c1c(-c1ccc(Oc3ccccc3)cc1)nn2C1CCN(CCN2CCC(CN3CCN(c4ccc(NC5CCC(=O)NC5=O)cc4)CC3)CC2)CC1 (centres unmarked) [Compound 558, 3-((4-(4-((1-(2-(4-(4-amino-3-(4-phenoxyphenyl)-1H-pyrazolo[3,4-d]pyrimidin-1-yl)piperidin-1-yl)ethyl)piperidin-4-yl)methyl)piperazin-1-yl)phenyl)amino)piperidine-2,6-dione] | < 0.01 µM | > 90% | > 6.00 | > 6.00 |
| Nc1ncnc2c1c(-c1ccc(Oc3ccccc3)cc1)nn2C1CCN(CCCN2CCC(CN3CCN(c4ccc(NC5CCC(=O)NC5=O)cc4)CC3)CC2)CC1 (centres unmarked) [Compound 560, 3-((4-(4-((1-(3-(4-(4-amino-3-(4-phenoxyphenyl)-1H-pyrazolo[3,4-d]pyrimidin-1-yl)piperidin-1-yl)propyl)piperidin-4-yl)methyl)piperazin-1-yl)phenyl)amino)piperidine-2,6-dione] | < 0.01 µM | > 90% | > 6.00 | > 6.00 |
| Nc1ncnc2c1c(-c1ccc(Oc3ccccc3)cc1)nn2C1CCN(CCCN2CCC(CC3CCN(c4ccc(NC5CCC(=O)NC5=O)cc4)CC3)C2)CC1 (centres unmarked) [Compound 567, 3-((4-(4-((1-(3-(4-(4-amino-3-(4-phenoxyphenyl)-1H-pyrazolo[3,4-d]pyrimidin-1-yl)piperidin-1-yl)propyl)pyrrolidin-3-yl)methyl)piperidin-1-yl)phenyl)amino)piperidine-2,6-dione] | 0.01 to 0.05 µM | > 90% | > 6.00 | 5.00 to 6.00 |
| Nc1ncnc2c1c(-c1ccc(Oc3ccccc3)cc1)nn2C1CCN(C2CCN(CCN3CCC(c4ccc(N5CCC(=O)NC5=O)cc4)CC3)CC2)CC1 [Compound 569, 1-(4-(1-(2-(4-(4-amino-3-(4-phenoxyphenyl)-1H-pyrazolo[3,4-d]pyrimidin-1-yl)-[1,4′-bipiperidin]-1′-yl)ethyl)piperidin-4-yl)phenyl)dihydropyrimidine-2,4(1H,3H)-dione] | 0.01 to 0.05 µM | > 90% | 5.00 to 6.00 | 5.00 to 6.00 |
| Nc1ncnc2c1c(-c1ccc(Oc3ccccc3)cc1)nn2C1CCN(C2CCN(CCN3CCN(c4ccc(N5CCC(=O)NC5=O)cc4)CC3)CC2)CC1 [Compound 570, 1-(4-(4-(2-(4-(4-amino-3-(4-phenoxyphenyl)-1H-pyrazolo[3,4-d]pyrimidin-1-yl)-[1,4′-bipiperidin]-1′-yl)ethyl)piperazin-1-yl)phenyl)dihydropyrimidine-2,4(1H,3H)-dione] | 0.01 to 0.05 µM | > 90% | 5.00 to 6.00 | 5.00 to 6.00 |
| Nc1ncnc2c1c(-c1ccc(Oc3ccccc3)cc1)nn2C1CCN(C2CCN(CCCN3CCC(c4ccc(N5CCC(=O)NC5=O)cc4)CC3)CC2)CC1 [Compound 571, 1-(4-(1-(3-(4-(4-amino-3-(4-phenoxyphenyl)-1H-pyrazolo[3,4-d]pyrimidin-1-yl)-[1,4′-bipiperidin]-1′-yl)propyl)piperidin-4-yl)phenyl)dihydropyrimidine-2,4(1H,3H)-dione] | 0.01 to 0.05 µM | > 90% | > 6.00 | > 6.00 |
